This is an account of results in patent US9067894B1, “Compound, composition, and method of activating GIRK potassium channel and use of same for treating conditions of interest” (Vanderbilt University, priority 2013, dated 2015).

In brackets after ≈: the same amount, converted by molar mass.

Data set [1] can be described thus: Solubility. It is filed as physicochemical.
For data set [2], the system named is Glutamate (kainate). Briefly: Radioligand displacement (Ricerca). In kind it is binding, rat. Particulars: 10 μM. In general terms: In a radioligand displacement assay an active substance lowers the binding of a labelled ligand.
Data set [3] concerns the target T1, Opiate (DOP) (Homo sapiens, UniProt P41143).
T1 construct: Ricerca (contract laboratory that ran the panel)
Description: Radioligand displacement (Ricerca). It is filed as binding.

Data set [4] deals with Potassium channel KATP. Description: Radioligand displacement (Ricerca). The settings on record: 10 μM. In kind it is binding, human.
Data set [5] deals with T2, GIRK1/2 (Homo sapiens, UniProt P48051+P48549).
T2 sequence (P48549 1-501): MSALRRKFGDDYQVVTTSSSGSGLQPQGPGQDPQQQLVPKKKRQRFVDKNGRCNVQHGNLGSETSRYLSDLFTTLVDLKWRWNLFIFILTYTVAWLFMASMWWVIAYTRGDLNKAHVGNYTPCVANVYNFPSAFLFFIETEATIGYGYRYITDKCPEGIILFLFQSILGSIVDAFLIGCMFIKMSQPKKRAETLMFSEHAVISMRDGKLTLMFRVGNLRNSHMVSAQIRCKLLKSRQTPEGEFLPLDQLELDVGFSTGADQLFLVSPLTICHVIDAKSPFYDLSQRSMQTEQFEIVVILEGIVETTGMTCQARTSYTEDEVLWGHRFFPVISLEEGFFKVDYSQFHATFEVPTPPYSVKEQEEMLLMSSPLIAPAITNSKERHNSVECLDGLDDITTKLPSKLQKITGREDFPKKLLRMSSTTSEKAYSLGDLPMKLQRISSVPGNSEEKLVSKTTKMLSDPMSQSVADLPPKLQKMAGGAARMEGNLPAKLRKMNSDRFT
T2 sequence (P48051 1-423): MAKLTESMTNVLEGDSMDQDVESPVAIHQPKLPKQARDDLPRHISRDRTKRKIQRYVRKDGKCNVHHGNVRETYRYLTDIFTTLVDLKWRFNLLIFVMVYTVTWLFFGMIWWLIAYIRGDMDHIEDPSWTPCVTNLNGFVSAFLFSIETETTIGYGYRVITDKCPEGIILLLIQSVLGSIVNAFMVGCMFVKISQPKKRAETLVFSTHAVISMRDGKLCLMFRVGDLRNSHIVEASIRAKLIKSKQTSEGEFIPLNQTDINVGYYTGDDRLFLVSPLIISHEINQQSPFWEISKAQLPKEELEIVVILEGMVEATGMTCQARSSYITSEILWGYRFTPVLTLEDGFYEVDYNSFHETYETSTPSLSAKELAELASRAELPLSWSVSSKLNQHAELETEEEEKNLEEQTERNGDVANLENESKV
Briefly: Thallium flux assay, HEK-293 cells expressing GIRK1/2. Particulars: cell line GIRK1-2; average ± SEM; read-out: EC50 Thallium Flux. In kind it is cell-based. Also noted: host or cells: HEK-293. An excerpt: Cell Line Construction and Cell Culture. HEK-293 cells co-expressing human GIRK1/2 and rat mGlu8 were generated as previously described (Niswender et al., 2008). A HEK-293 cell line (ATCC, Manassas, Va.) expressing human GIRK1 and human GIRK2 was constructed by transfecting HEK-293 cells with GIRK1 and GIRK2 (Origene, Rockville, Md.) cloned into the pBudCE4.1 vector (Life Technologies, Carlsbad, Calif.) using FuGene 6 (Promega, Madison, Wis.) transfection reagent. Unless otherwise noted, other ion channel-expressing cells were prepared by transfecting HEK-293 cells with individual or combinations of subunits: GIRK1, pCMV6-A-BSD; GIRK2, pCMV6-A-puro; GIRK3, pCMV6-A-hygro; GIRK4, pCMV6-A-AC; Kv7.4, pIRESneo3. The Kir2.1 and hERG-expressing cell lines were made by transfecting T-REx-293 cells (Life Technologies, Carlsbad, Calif.) with Kir2.1 and Kv11.1, respectively, cloned into pcDNA5TO. Monoclonal cell lines were produced by limiting-dilution cloning of antibiotic-resistant cells and functional selection using the thallium flux assay described below. Unless otherwise noted, cells were maintained in Minimal Essential Medium, Alpha Medium (Mediatech, Manassas, Va.) supplemented with 10% fetal bovine serum (Sigma-Aldrich, Saint Louis, Mo.) and GlutaGro (Mediatech, Manassas, Va.), referred to henceforth as cell culture medium. […]

T1 sequence (P41143 whole entry): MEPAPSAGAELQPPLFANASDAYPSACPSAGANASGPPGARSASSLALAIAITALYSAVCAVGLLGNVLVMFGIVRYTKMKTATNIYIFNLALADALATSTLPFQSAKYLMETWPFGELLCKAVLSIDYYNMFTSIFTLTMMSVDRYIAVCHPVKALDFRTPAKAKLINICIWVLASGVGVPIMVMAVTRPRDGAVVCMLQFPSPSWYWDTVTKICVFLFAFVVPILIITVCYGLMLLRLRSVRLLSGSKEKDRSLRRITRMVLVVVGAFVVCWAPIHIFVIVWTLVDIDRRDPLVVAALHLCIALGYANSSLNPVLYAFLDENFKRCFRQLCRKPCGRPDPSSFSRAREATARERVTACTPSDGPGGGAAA

For `Cc1cc(NC(=O)Nc2ccc(F)c(F)c2)n(-c2ccccc2)n1` [VU0456810, 1-(3,4-difluorophenyl)-3-(3-methyl-1-phenyl-1H-pyrazol-5-yl)urea], in data set [1], the concentration in solution (solubility) was 17.5 µM (≈ 5.75 µg/mL). The results for the “% Inhibition” value in data set [2] and in data set [4] were 1% and 2%, respectively. For the same compound, in data set [3], the inhibition (commonly the relative decrease from the control value, in per cent) at 10 µM was -4%. Moreover, the half-maximal effective concentration (EC50) (in general, the concentration needed to bring the measured effect to its halfway point) in data set [5] amounted to 162 ± 89 nM.
